Experimental findings from the NIST ThermoML archive (doi:10.1016/j.jct.2017.09.007) are described below.

Numbers after ± are expanded uncertainties.

For data set [1] the following is noted: Crystal; DTA.
The nature of data set [2]: Molar enthalpy of transition or fusion. As to conditions: Crystal; DSC.
Data set [3] in a line: molar heat capacity at constant pressure. As to conditions: 298.15 K, 100 kPa, Small sample (50 mg) DSC.

Regarding `CCOC(=O)c1ccccc1O` [ethyl 2-hydroxybenzoate], the Normal melting temperature in data set [1] turned out to be 1.33 ± 0.53 °C. For the same compound, in data set [2], the “Molar enthalpy of transition or fusion” value is 24.2 ± 0.61 kJ/mol. Also, the “molar heat capacity at constant pressure” value in data set [3] (Liquid) came out at 283.07 ± 4.4 J/K/mol.

As for `CCOC(=O)c1cccc(O)c1` [ethyl 3-hydroxybenzoate], in data set [1], the Normal melting temperature is 72.23 ± 0.46 °C. Moreover, in data set [2], the “Molar enthalpy of transition or fusion” value was 25.8 ± 0.61 kJ/mol. Further, the “molar heat capacity at constant pressure” value in data set [3] (Crystal) is recorded as 217.22 ± 3.4 J/K/mol.

Regarding `CCOC(=O)c1ccc(O)cc1` [ethyl 4-hydroxybenzoate], the Normal melting temperature in data set [1] came to 115.70 ± 0.45 °C. Further, the “Molar enthalpy of transition or fusion” value in data set [2] came out at 27.5 ± 0.63 kJ/mol. Further, the “molar heat capacity at constant pressure” value in data set [3] (Crystal) turned out to be 233.93 ± 3.6 J/K/mol.
